Patent US20240043933A1, “METHODS FOR DETECTING AND PREDICTING BREAST CANCER” (UCL Business Ltd, priority 2020, published 2024)
“Also recorded” adds a separate entry of the source.

Key:
[1] = tested on: WID-Breast29 (mean methylation level of 37 CpGs) in breast tissue; assay: WID-Breast29 in breast biopsies before and after treatment (clinical trials, Set 3); assay type: in vivo, human
Description: Set 3: to assess the performance of the WID-Breast29 test monitoring preventive measures in real time. The samples were obtained from two clinical trials (FIG. 4) as follows.
Trial 1 was “Mifepristone treatment prior to insertion of a levonorgestrel releasing intrauterine system for improved bleeding control—a randomised controlled trial” (1) (EudraCT number: 2009-009014-40; Regional ethical review board at Karolinska Institutet permit 2009/144-31/4). The primary objective was to assess the effect of mifepristone pre-treatment on the initial bleeding pattern after insertion of a levonorgestrel releasing intrauterine system. An included secondary objective was to study the effect of mifepristone on breast tissue.
Trial 2 was “The Effect of a Progesterone Receptor Modulator on Breast Tissue in Women with BRCA-1 and -2 Mutations” (ClinicalTrials.gov Identifier: NCT01898312; regional ethical review board at Karolinska Institutet permit 2012/729 31/1). The core objective of this ongoing study is to assess the safety and effect of treatment with mifepristone on epithelial cell proliferation in human breast tissue in women with BRCA-1 or -2 mutations prior to protective mastectomy.
(§1) Study subjects for both trials were healthy premenopausal women aged 18 and above with regular menstrual cycles lasting 25-35 days and with no contraindications to mifepristone. The main exclusion criteria were: use of any hormonal or intrauterine contraception and pregnancy or breastfeeding two months prior to the study; a history of breast cancer or other malignancies and adnexal abnormality upon transvaginal ultrasound examination. All women were instructed to use barrier contraceptive methods throughout the duration of the study. After signing an informed consent, study subjects in both trials were randomised 1:1 or 1:2 into the vitamin arm (Triobe®—used as a comparator in these studies) or mifepristone arm in Trial 1 and Trial 2, respectively. One group (i.e. 16 BRCA carriers and 28 controls) was treated with 50 mg mifepristone (one quarter of 200 mg Mifegyne®, Exelgyn, Paris, France) every other day for two months in Trial 1 (n=28) and three months in Trial 2 (n=16) starting on the first day of the menstrual cycle. As mifepristone is only available in 200 mg tablets in Sweden, a study nurse divided the tablets into 4 parts (each 50 mg) and instructed the study subjects to take one part every other day. The other group (i.e. 8 BRCA carriers and 29 controls) received Triobe® tablets which are visually identical to mifepristone and were also divided into 4 parts [one quarter of TrioBe® contains 0.125 mg cyanocobalamin (Vitamin B12), 0.2 mg folic acid (Vitamin B9), and 0.75 mg Pyridoxinhydrochlorid (Vitamin B6)]. Tablets were dispensed for two weeks at a time. […]

[2] = tested on: WID-Breast5 (mean PMR of MTA1, HOXD12, LHX8, NEUROD1, CBLN4) in breast tissue; assay: WID-Breast5 (MethyLight PMR) in breast biopsies before and after treatment (Set 3); assay type: in vivo, human
Description: as §1, with “time. Core needle aspiration biopsies were collected during the luteal phase before treatment and at the end of treatment during the luteal phase (vitamin treatment) or corresponding time of the cycle (mifepristone treatment). The biopsies were collected under ultrasound guidance from the upper outer quadrant of one breast using a 14 Gauge needle with an outer diameter of 2.2 mm. The end-of-treatment breast biopsy was taken from the same area. From Trial 1, 12 women from each of the vitamin and mifepristone groups were included in this study; of these, 11 and 9 women, respectively, had provided sufficient DNA from the pre- and post-treatment biopsies for subsequent processing and analysis.” for “time.”
Sodium bisulfite conversion of genomic DNA and the MethyLight assay were performed as previously described (A. Jones et al., Role of DNA methylation and epigenetic silencing of HAND2 in endometrial cancer development. PLoS Med 10, e1001551 (2013)). […] The percentage of fully methylated molecules at a specific locus has been calculated by dividing the GENE:COL2A1 ratio of a sample by the GENE:COL2A1 ratio of SssI-treated human white blood cell DNA and multiplied by 100. […]

breast tissue = details: healthy women; cited from earlier work
mammary cancer = details: mice; cited from earlier work
[3] = tested on: BRCA-mediated breast cancer; details: rodents; cited from earlier work
[4] = tested on: breast epithelial proliferation; details: three premenopausal volunteers; cited from earlier work
[5] = tested on: contralateral breast cancer; details: postmenopausal breast cancer patients; cited from earlier work
[6] = biopsies before and after 2-3 month treatment

Compound | BRCA mutant volunteers not showing a reduction of the WID-Breast29 after treatment ([1]; BRCA mutant volunteers (4/11)) | women exhibiting a lower WID-Breast29 after treatment ([1]; all women of the group (15 vitamins, 20 mifepristone), biopsies before and after 2-3 month treatment) | change in WID-Breast29 after treatment (paired-sample t-test) [1, 6] | control volunteers showing a reduction of the WID-Breast29 after treatment ([1]; healthy control volunteers (n=9)) | BRCA mutant volunteers not showing a reduction of the WID-Breast5 after treatment ([2]; BRCA mutant volunteers (6/10)) | women exhibiting a lower WID-Breast5 after treatment ([2]; all women of the group (12 vitamins, 16 mifepristone), biopsies before and after 2-3 month treatment) | change in WID-Breast5 after treatment (paired-sample t-test) [2, 6] | control volunteers showing a reduction of the WID-Breast5 after treatment ([2]; healthy control volunteers (n=6)) | effect on proliferation in breast tissue (breast tissue) | effect on mammary cancer development (mammary cancer) | prevention of BRCA-mediated breast cancer formation [3] | effect on breast epithelial proliferation [4] | impact on the incidence of contralateral breast cancer [5]
CC#C[C@]1(O)CC[C@H]2[C@@H]3CCC4=CC(=O)CCC4=C3[C@@H](c3ccc(N(C)C)cc3)C[C@@]21C [mifepristone] | 36% | 80% | highly significant reduction; also recorded: significantly reduced | 100% | 60% | 75% | highly significant reduction; also recorded: significantly reduced | 100% | antiproliferative effect | reduce mammary cancer development | can be prevented |  | 
Denosumab: fully humanised monoclonal antibody that binds RANKL |  |  |  |  |  |  |  |  |  |  |  | reduce breast epithelial proliferation | does not appear to impact
